This note sets out measurements from patent US20250136555A1 (HARBIN MEDISAN PHARMACEUTICAL CO., LTD., priority 2022, published 2025).

Test [1] deals with hepatic fibrosis model mice. The test can be described thus: Tetrachloromethane-induced hepatic fibrosis in mice. Type of test: in vivo, C57 mice. As to the method: Animals: 30 male C57 mice, SPF grade, 8 weeks old, weighing about 20 g, purchased from Beijing Vital River. All animals maintained a 12-hour alternating circadian rhythm and were given ad libitum access to food and water. […] The mice were all fed food and water normally, and the modeling lasted for 3 weeks. The mice in the model group and each of the administration groups were injected twice a week with a 25% CCl4 oil solution at a dose of 2 mL/kg, and the mice in the control group were injected with an oil solvent with the same volume. The administration was started at the same time of molding. […] After 3 weeks of administration, the mice were all fed food and water normally. Each group of mice was weighed every day, and their body weight, hair, feces, and activities were carefully observed and recorded. Twenty-four hours after the sixth injection of CCl4, the mice were dissected for sampling. Blood was collected from the orbit, the mice were euthanized, and the liver was collected. The right lobular tissue of the liver was fixed with 4% paraformaldehyde and used for sectioning followed by HE and sirius red staining. Part of liver tissues were divided into 3 parts and snap-frozen in liquid nitrogen for subsequent assays of other indexes. The pre-treated tissue was sent to Wuhan Servicebio Technology Co., Ltd. for preparing HE-stained sections and sirius red-stained sections. The liver tissue stored at −80° C. was taken and placed in liquid nitrogen, and about 200 mg of liver tissue was rapidly cut off. Hydroxyproline in the liver tissue was assayed according to the method in the product's instruction (Beijing Solarbio Science & Technology Co., Ltd., BC0255).

Test [2] relates to ANIT-induced cholestasis in mice. The test can be described thus: α-Naphthylisothiocyanate (ANIT)-induced cholestasis in mice. The format is in vivo, C57 mice. As to the method:
Animals: 25 male C57 mice, SPF grade, 8 weeks old, weighing about 20 g, purchased from Beijing Vital River. All animals maintained a 12-hour alternating circadian rhythm and were given ad libitum access to food and water. […] The mice were all fed food and water normally. The molding and administration processes were as follows: the mice in each of the administration groups were intragastrically administered the corresponding doses and types of compounds 6 h before modeling, and the mice in the control group and the model group were administered solvent controls with the same volume. When modeling, except for the control group, the mice in each group were intragastrically administered ANIT at a dose of 80 mg/kg, and the mice in the control group were administered the solvent control with the same volume. The administration was then continued for two days, once per day. Each group of mice was weighed every day, and their body weight, hair, feces, and activities were carefully observed and recorded. Forty-eight hours after giving ANIT for molding, blood was collected from the orbit, the mice were euthanized, and the liver was collected. The right lobular tissue of the liver was fixed with 4% paraformaldehyde and used for sectioning followed by HE staining. The remaining liver tissues were snap-frozen in liquid nitrogen for subsequent assays of other indexes. The whole blood was left to stand at room temperature for 2 h and centrifuged at 3000 rpm for 15 min, and serum was collected. Levels of aspartate aminotransferase (AST), alanine aminotransferase (ALT), alkaline phosphatase (ALP), total bilirubin (TBil), and total bile acid (TBA) in the serum were assayed. The fixed tissue was sent to Wuhan Servicebio Technology Co., Ltd. for preparing HE-stained sections. The test was performed using a tissue and blood alkaline phosphatase (AKP/ALP) activity assay kit (BC2145) purchased from Beijing Solarbio Science & Technology Co., Ltd. The liver tissue stored at −80° C. was taken and placed in liquid nitrogen, about 0.1 g of liver tissue was rapidly cut off, and 1 mL of an extracting solution was added. The mixture was ground thoroughly and centrifuged at 4° C. and 10000 rpm for 10 min, and the supernatant was collected for assay. The assay was performed by referring to the method in the product's instruction. Data were corrected according to protein concentrations of the samples, and the catalytic production of 1 μmol phenol per minute per milligram protein at 37° C. was defined as one enzymatic activity unit.

Another test deals with T1, PPARγ (Homo sapiens, UniProt P37231).
T1 construct: expressed in transfected cells; host or cells: COS-7
T1 sequence (P37231 238-503 limits assumed): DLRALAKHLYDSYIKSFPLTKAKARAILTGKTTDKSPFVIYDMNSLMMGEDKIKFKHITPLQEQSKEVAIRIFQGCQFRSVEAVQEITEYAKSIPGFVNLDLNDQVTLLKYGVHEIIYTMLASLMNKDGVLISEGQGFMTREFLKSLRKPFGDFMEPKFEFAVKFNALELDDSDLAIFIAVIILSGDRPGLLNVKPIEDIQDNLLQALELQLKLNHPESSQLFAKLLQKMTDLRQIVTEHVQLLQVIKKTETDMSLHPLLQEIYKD
Briefly: GAL4 hybrid reporter gene method, PPARγ agonistic activity. The format is cell-based. The conditions noted are these: Cos-7 cells, Gal4-PPARγ (LBD); Rosiglitazone 1 μM = 100%; 16 h. Background: Reporter assays use an easily measured gene product as a stand-in for the process of interest.

Another test deals with T2, PPARα (Homo sapiens, UniProt Q07869).
T2 construct: expressed in transfected cells; host or cells: COS-7
T2 sequence (Q07869 239-466 limits assumed): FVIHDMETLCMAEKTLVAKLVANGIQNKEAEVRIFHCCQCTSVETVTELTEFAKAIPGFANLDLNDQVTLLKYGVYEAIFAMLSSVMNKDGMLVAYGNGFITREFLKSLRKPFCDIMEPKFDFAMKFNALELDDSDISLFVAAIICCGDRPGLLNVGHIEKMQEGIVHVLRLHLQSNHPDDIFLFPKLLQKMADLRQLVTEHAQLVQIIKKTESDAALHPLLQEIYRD
The test can be described thus: GAL4 hybrid reporter gene method, PPARα agonistic activity. Type of test: cell-based. The conditions noted are these: Cos-7 cells, Gal4-PPARα (LBD); GW7647 10 nM = 100%; 16 h.

For test [3], the system named is PPARα/δ downstream target genes. Briefly: Expression of PPARα/δ downstream target genes in mouse liver and skeletal muscle. The format is in vivo, C57 mice. The conditions noted are these: mice, 0.03 and 0.1 mg/kg, three days. As to the method:
C57 mice were divided into three groups, i.e., a control group, a low dose group (0.03 mg/kg), and a high dose group (0.1 mg/kg), with 6 mice in each group. Each group of mice was intragastrically administered compound 1 or a solvent control with the same volume for three consecutive days according to the doses. Three days after administration, the mice were euthanized and dissected for sampling. Liver and skeletal muscle were snap-frozen in liquid nitrogen for subsequent experiments. After extracting RNA in the liver and skeletal muscle, the up-regulation fold of the expression of the PPARα/δ downstream target genes was detected. […] Some of other compounds of the present invention also have similar effects.

SMILES strings stand for the structures. Entries after “also recorded” stand apart in the source; their conditions may differ.

Protocol for PPARγ: Cos-7 cells (African green monkey kidney fibroblasts, commonly used tool cells) were cultured in a 10-cm cell culture dish with a DMEM complete medium containing 10% fetal bovine serum. When growing at a density of about 70%, the cells were ready for transfection. […] The working solution described above was then combined with 8 mL of the DMEM complete medium, and the mixture was added to the cell culture dish for cell transfection. After 4 h of transfection, the cells were digested, resuspended, and seeded into a 96-well plate at 25,000 cells/well. […] 10 μL of a reporter gene detection solution (purchased from Shanghai Beyotime Biological Tech. Co., Ltd.) was added. After the resulting solution was mixed and reacted, biological fluorescence was detected by using a multifunctional microplate reader, and corresponding half maximal effective concentration (EC50) values were calculated according to the detection values. […] Transfection working solutions for different nuclear receptors were prepared and added into COS-7 cells. The preparation method for the transfection working solution was as follows: the constructed pBIND-Gal4-PPARα (LBD) (or pBIND-Gal4-PPARδ (LBD) plasmid or pBIND-Gal4-PPARγ (LBD) plasmid or pBIND-Gal4-RARα (LBD) plasmid or pBIND-Gal4-RARγ (LBD) plasmid or pBIND-Gal4-RARβ (LBD) plasmid or pBIND-Gal4-RORα (LBD) plasmid or pBIND-Gal4-RORγ (LBD) plasmid or pBIND-Gal4-RORβ (LBD) plasmid or pBIND-Gal4-FXR (LBD) plasmid or pBIND-Gal4-RXRα.

As usually defined, the EC50 is the concentration at which the effect is half-maximal. A higher EC50 goes with a need for much substance. Turning to `Cc1cc(CN2C(=O)CN(c3ccc(C(F)(F)F)cc3)C2=O)cc(C)c1OC(C)(C)C(=O)O` [Compound 1, 2-(4-((2,5-Dioxo-3-(4-(trifluoromethyl)phenyl)imidazolidin-1-yl)methyl)-2,6-dimethylphenoxy)-2-methylpropionic Acid], in test [1] (CCl4 model), the “collagen deposition in liver, sirius red staining (FIG. 15)” value is “significantly reduce collagen deposition”; the “effect on the hepatic fibrosis mouse model (conclusion)” value is recorded as “protective effect”; the “inflammatory infiltration in liver, HE staining (FIG. 14)” value was “reduce inflammatory infiltration”. Also, the “hydroxyproline content in the liver (FIG. 13)” value in test [1] (CCl4 model, 0.03 and 0.1 mg/kg intragastric daily, 3 weeks) is given as “dose-dependently reduce the hydroxyproline content”. Further, the “improving effect on collagen deposition versus GFT505” value in test [1] (compound 1 0.1 mg/kg vs GFT505 10 mg/kg) is given as “superior to that of GFT505 at 10 mg/kg”. For the same molecule, the “effect on hydroxyproline content versus GFT505” value in test [1] (compound 1 0.1 mg/kg vs GFT505 at 30 mg/kg (so in the source)) is listed as “superior to that of GFT505 at 30 mg/kg”. In addition, the “intrahepatic cholestasis: liver morphology and serum color (FIG. 2)” value in test [2] (ANIT 80 mg/kg, 0.03 and 0.1 mg/kg intragastric) is “effectively improve intrahepatic cholestasis”. Moreover, in test [2] (ANIT model), the “therapeutic effect on mouse cholestatic model (conclusion)” value is reported as “potent therapeutic effect”. Also, in test [2] (ANIT model, 0.03 and 0.1 mg/kg), the “level of intrahepatic ALP (FIG. 4)” value is “significantly down-regulate”; the “necrotic areas in the liver, HE staining (FIG. 5)” value is “dose-dependently reduce the number and area of necrotic areas”; the “serum ALP (FIG. 3)” value was “a certain tendency to reduce”; the “serum ALT level (FIG. 3)” value is “dose-dependently and significantly down-regulate”. For the same molecule, in test [2] (ANIT model, 0.03 and 0.1 mg/kg), the “serum AST level (FIG. 3)” value was “dose-dependently and significantly down-regulate”; the “serum TBA level (FIG. 3)” value is “dose-dependently and significantly down-regulate”; the “serum TBil level (FIG. 3)” value is “dose-dependently and significantly down-regulate”. Also, the “ability to improve general appearance of the liver and serum color versus GFT505” value in test [2] (compound 1 0.03 mg/kg vs GFT505 30 mg/kg) is “comparable to the effect of GFT505 at 30 mg/kg”. In addition, the “effects on reducing hepatic enzymes, total bilirubin and total bile acid versus GFT505” value in test [2] (compound 1 0.1 mg/kg vs GFT505 30 mg/kg) is listed as “comparable to that of GFT505 at 30 mg/kg”. The “effect on reducing intrahepatic ALP versus GFT505” value in test [2] (compound 1 at the two doses vs GFT505 30 mg/kg) was “slightly superior to that of GFT505 at 30 mg/kg”. The EC50 at PPARγ amounted to 1660 nM. For the same molecule, at PPARα, the EC50 was 0.7 nM and the “PPARα EC50 (nM)” value is given as “picomolar levels; also recorded: low nanomolar levels”. The “expression of PPARα/δ downstream target genes in liver and skeletal muscle” value in test [3] is recorded as “significantly up-regulated”.
